The test system of assay [1] is spleen cells (C57BL/6 responder, irradiated Balb/C stimulator). Briefly: Mixed lymphocyte reaction (MLR): inhibition of responder spleen cell proliferation. It is filed as cell-based. The note with it: Mus musculus, 96 h, four days incubation. As to the method: Inhibition of cell proliferation in the mixed lymphocyte reaction (MLR) (Bradley, 1980; Mishell, 1980) is a measure of in vivo immunosuppression. Spleen cells from female C57BL/6 mice, the "responder" cells, were prepared and co-cultured alone or in the presence of varying concentrations of the test compounds, with irradiated spleen cells prepared from female Balb/C mice, the "stimulator" cells. Prior irradiation of the stimulator cells rendered them unable to proliferate. A sample of the responder cells was also irradiated for use as a control. The non-irradiated responder cells proliferate in the presence of the allogenic stimulator cells. After a 78-hour incubation, tritiated thymidine was added to the mixed cell cultures, and incorporation of the labeled nucleotide into DNA was measured as an index of cell proliferation. […]
In the assay, 4×10^5 cells of R were cocultured with 4×10^5 cells of Sx in 200 μl of medium in round bottom 96 well tissue culture plates. […] The spontaneous proliferation of R was also measured.
The culture plates were incubated at 37° C. in a 5% CO2 incubator for four days. […] Cells were then harvested and counted. […] Sample cpm was calculated as (R+Sx+sample)cpm-(R+Rx +sample)cpm; control cpm was calculated as (R+Sx)cpm-(R+Rx)cpm. Percent suppression of MLR activity was calculated as (1-sample cpm/control cpm)×100. […]

The subject of assay [2] is murine thymocytes (IL-1β action). The experiment in a line: Inhibition of IL-1 action: suppression of IL-1β + PHA stimulated thymocyte proliferation ((3H)-thymidine incorporation). As to conditions: IL-1β 0.08 ng/ml + PHA 10 μg/ml. It is filed as cell-based, mouse (C3H/HeN). The method, then:
The ability of the above compounds to suppress the cell-proliferative effect of IL-1β (O'Gara, 1990) was examined as described in Example 11. Mouse thymocytes in culture were stimulated with IL-1β in the presence of phytohemagglutinin (PHA) and increasing concentrations of triptolide (control) and triptolide derivatives. The cells were cultured for 72 hours, and during the last 18 hours, incubated with tritiated thymidine. DNA synthesis was assessed by measuring incorporation of radiolabeled thymidine. The results expressed in terms of IC50 (concentration effective to cause 50% suppression of proliferation) are shown in Table I.
Inhibition of IL-1 Action on Murine Thymocytes
C3H/HeN mouse thymocytes were prepared and the action of IL-1 together with PHA, which stimulate proliferation of thymocyte, was measured using standard techniques (O'Gara, 1990; Mishell, 1980). Three- to six-week old C3H/HeN male mice (Simonson Laboratory, Gilroy, Calif.) were sacrificed by CO2 inhalation. Thymi were removed, separated from adherent non-thymic tissue, homogenized in Hank's balanced salt solution (HBSS, Gibco) using a glass homogenizer, and centrifuged at 200×g for 10 minutes at 15° C. Following an additional wash in HBSS, the thymocytes were resuspended in RPMI 1640 medium containing 50 uM 2-mercaptoethanol, 2 mM glutamine, 1 mM sodium pyruvate, non-essential amino acids 100 U/ml penicillin, 100 μg/ml streptomycin, and 10% heat-inactivated fetal bovine serum.
Cells were cultured in round-bottom 96 well microtiter tissue culture plates, 6×10^5 cells per well, in a volume of 100 μl. Recombinant human IL-1β(R & D Systems #201-LB) together with Phytohemagglutinin P (PHA, Pharmacia) were added to the cells in volume of 25 μl per well to achieve a final concentration of 0.08 ng/ml and 10 μg/ml, respectively. Samples were dissolved in DMSO (10 mg/ml), then diluted in culture medium. […]
Plates were incubated at 37° C. in a 5% CO2 incubator for 72 hours. […] Cells were then harvested and counted. […]
(Incorporation of labelled thymidine or its analogues reports DNA synthesis.)

Like-named read-outs stand apart in the source and are kept apart here.

Turning to `CC(C)[C@]12O[C@H]1[C@@H]1O[C@]13[C@]1(O[C@H]1C[C@H]1C4=C(CC[C@@]13C)C(=O)OC4)[C@@H]2O` [Triptolide, triptolide], the IC50 in assay [1] (read-out: IC50 (concentration of sample producing 50% suppression of proliferation), MLR assay) is 0.9 ng/mL; in assay [1] (read-out: IC50, MLR assay), 2.5 nM; in assay [2] (72 hours, read-out: IC50, IL-1 assay), approximately 5 nM; in assay [2] (Mus musculus, Thymocyte, 72 h, read-out: IC50 (concentration effective to cause 50% suppression of proliferation), IL-1 assay), 1.9 ng/mL; in assay [2] (Mus musculus, Thymocyte, 72 h, read-out: IC50, IL-1 assay) it was 5.3 nM.

These data come from patent publication US5663335A, “Immunosuppressive compounds and methods” (priority 1996, dated 1997).
